Measurements: patent US12077503B2, “Substituted cyclic amides and their use as herbicides” (FMC CORPORATION, priority 2015, dated 2024)

Key:
Assay type in all cases: in vivo
[1] = tested on: giant foxtail (Setaria faberii); assay: Test A postemergence; details: Setaria faberi, post-emergence, 240 h, 125 g ai/ha, postemergence; visual injury after approximately 10 d; 0 to 100 scale (0 no effect, 100 complete control); read-out: Plant response rating, Foxtail, Giant
In short: (§1)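 Visual injury, scored on a 0–100 scale relative to untreated controls, was recorded about 10 d after application. Treatments were a preemergence soil spray over planted seeds or a postemergence spray on plants at the one- to two-leaf stage, 2 to 10 cm tall, all in loam soil–sand blend in the greenhouse.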

Kochia (Kochia scoparia) [2] = assay: Test A postemergence; details: Bassia scoparia, post-emergence, 240 h, 125 g ai/ha, postemergence; visual injury after approximately 10 d; 0 to 100 scale (0 no effect, 100 complete control); read-out: Plant response rating, Kochia
In short: as §1

[3] = tested on: blackgrass (Alopecurus myosuroides); assay: Test A postemergence; details: Alopecurus myosuroides, post-emergence, 240 h, 125 g ai/ha, postemergence; visual injury after approximately 10 d; 0 to 100 scale (0 no effect, 100 complete control); read-out: Plant response rating, Blackgrass
In short: as §1

[4] = tested on: wheat (Triticum aestivum); assay: Test A postemergence; details: Triticum aestivum, post-emergence, 240 h, 125 g ai/ha, postemergence; visual injury after approximately 10 d; 0 to 100 scale (0 no effect, 100 complete control); read-out: Plant response rating, Wheat
In short: as §1

[5] = tested on: Galium (catchweed bedstraw, Galium aparine); assay: Test A postemergence; details: Galium, post-emergence, 240 h, 125 g ai/ha, postemergence; visual injury after approximately 10 d; 0 to 100 scale (0 no effect, 100 complete control); read-out: Plant response rating, Galium
In short: as §1

[6] = tested on: ragweed (common ragweed, Ambrosia elatior); assay: Test A postemergence; details: Ambrosia artemisiifolia, post-emergence, 240 h, 125 g ai/ha, postemergence; visual injury after approximately 10 d; 0 to 100 scale (0 no effect, 100 complete control); read-out: Plant response rating, Ragweed
In short: as §1

[7] = tested on: ryegrass, Italian (Italian ryegrass, Lolium multiflorum); assay: Test A postemergence; details: Lolium multiflorum, post-emergence, 240 h, 125 g ai/ha, postemergence; visual injury after approximately 10 d; 0 to 100 scale (0 no effect, 100 complete control); read-out: Plant response rating, Ryegrass, Italian
In short: as §1

[8] = tested on: barnyardgrass (Echinochloa crus-galli); assay: Test A postemergence; details: Echinochloa crus-galli, post-emergence, 240 h, 125 g ai/ha, postemergence; visual injury after approximately 10 d; 0 to 100 scale (0 no effect, 100 complete control); read-out: Plant response rating, Barnyardgrass
In short: as §1

[9] = tested on: pigweed (Amaranthus retroflexus); assay: Test A postemergence; details: Amaranthus retroflexus, post-emergence, 240 h, 125 g ai/ha, postemergence; visual injury after approximately 10 d; 0 to 100 scale (0 no effect, 100 complete control); read-out: Plant response rating, Pigweed
In short: as §1

corn (Zea mays) = assay: Test A postemergence; details: Zea mays, post-emergence, 240 h, 125 g ai/ha, postemergence; visual injury after approximately 10 d; 0 to 100 scale (0 no effect, 100 complete control)
In short: as §1

[10] = tested on: giant foxtail (Setaria faberii); assay: Test A preemergence; details: Setaria faberi, pre-emergence, 240 h, preemergence, read-out: Plant response rating, Foxtail, Giant
In short: as §1

Kochia (Kochia scoparia) [11] = assay: Test A preemergence; details: Bassia scoparia, pre-emergence, 240 h, preemergence, read-out: Plant response rating, Kochia
In short: as §1

[12] = tested on: ragweed (common ragweed, Ambrosia elatior); assay: Test A preemergence; details: Ambrosia artemisiifolia, pre-emergence, 240 h, preemergence, read-out: Plant response rating, Ragweed
In short: as §1

[13] = tested on: ryegrass, Italian (Italian ryegrass, Lolium multiflorum); assay: Test A preemergence; details: Lolium multiflorum, pre-emergence, 240 h, preemergence, read-out: Plant response rating, Ryegrass, Italian
In short: as §1

[14] = tested on: pigweed (Amaranthus retroflexus); assay: Test A preemergence; details: Amaranthus retroflexus, pre-emergence, 240 h, preemergence, read-out: Plant response rating, Pigweed
[15] = 125 g ai/ha, visual rating after approx. 10 d, 0 to 100 scale where 0 is no effect and 100 is complete control
[16] = 500 g ai/ha, 0 to 100 scale, 0 = no effect, 100 = complete control

C=CCN1C[C@H](c2ccc(OC)c(F)c2)[C@@H](C(=O)Nc2ccccc2S(C)(=O)=O)C1=O [Compound 724]
0%: pest or weed control at 125 g/ha [1] | pest or weed control at 125 g/ha (Kochia (Kochia scoparia) [2]) | pest or weed control at 125 g/ha [3] | plant injury at 125 g/ha [4] | pest or weed control at 125 g/ha [5] | pest or weed control at 125 g/ha [6] | pest or weed control at 125 g/ha [7] | pest or weed control at 125 g/ha [8] | pest or weed control at 125 g/ha [9] | Corn plant response rating (crop injury, 0 = no effect, 100 = complete kill) at 125 g/ha (corn (Zea mays)) | pest or weed control at 125 g/ha [10, 15] | pest or weed control at 500 g/ha [10, 16] | pest or weed control at 125 g/ha (Kochia (Kochia scoparia) [11]; [15]) | pest or weed control at 500 g/ha (Kochia (Kochia scoparia) [11]; [16]) | pest or weed control at 125 g/ha [12, 15] | pest or weed control at 500 g/ha [12, 16] | pest or weed control at 125 g/ha [13, 15] | pest or weed control at 500 g/ha [13, 16] | pest or weed control at 125 g/ha [14, 15] | pest or weed control at 500 g/ha [14, 16]
